This is an account of results in PubChem BioAssay AID1259407 (Chemical Carcinogenesis Research Information System (CCRIS), 2018).

In the data set the test system is CCRIS mutagenicity, Ames/micronucleus/aberration tests. Briefly: CCRIS mutagenicity studies.
The mark [1] stands for this setting: Test System: AMES SALMONELLA TYPHIMURIUM, Strain/Indicator: TA98, Metabolic Activation: NONE, Method: PREINCUBATION
The mark [2] stands for this setting: Test System: AMES SALMONELLA TYPHIMURIUM, Strain/Indicator: TA100, Metabolic Activation: NONE, Method: PREINCUBATION
Where [3] appears, read: Test System: AMES SALMONELLA TYPHIMURIUM, Strain/Indicator: TA1535, Metabolic Activation: NONE, Method: PREINCUBATION
Setting [4] is: Test System: AMES SALMONELLA TYPHIMURIUM, Strain/Indicator: TA98, Metabolic Activation: NONE, Method: STANDARD PLATE.
Setting [5] is: Test System: AMES SALMONELLA TYPHIMURIUM, Strain/Indicator: TA100, Metabolic Activation: NONE, Method: STANDARD PLATE.

Active and inactive are the calls of the source. No rule for the calls is given here.

Take `O=Cc1ccc(Cl)c(Cl)c1`: the mutagenic call is “inactive; negative” (Test System: AMES SALMONELLA TYPHIMURIUM, Strain/Indicator: TA97, Metabolic Activation: HAMSTER, LIVER, S-9, AROCLOR 1254 (10%), Method: PREINCUBATION); “inactive; negative” (Test System: AMES SALMONELLA TYPHIMURIUM, Strain/Indicator: TA97, Metabolic Activation: HAMSTER, LIVER, S-9, AROCLOR 1254 (30%), Method: PREINCUBATION); “inactive; negative” (Test System: AMES SALMONELLA TYPHIMURIUM, Strain/Indicator: TA97, Metabolic Activation: NONE, Method: PREINCUBATION); “inactive; negative” (Test System: AMES SALMONELLA TYPHIMURIUM, Strain/Indicator: TA97, Metabolic Activation: RAT, LIVER, S-9, AROCLOR 1254 (10%), Method: PREINCUBATION); “inactive; negative” (Test System: AMES SALMONELLA TYPHIMURIUM, Strain/Indicator: TA97, Metabolic Activation: RAT, LIVER, S-9, AROCLOR 1254 (30%), Method: PREINCUBATION); “inactive; negative” (Test System: AMES SALMONELLA TYPHIMURIUM, Strain/Indicator: TA98, Metabolic Activation: HAMSTER, LIVER, S-9, AROCLOR 1254 (10%), Method: PREINCUBATION). For the same compound, the mutagenic call is, setting by setting: (Test System: AMES SALMONELLA TYPHIMURIUM, Strain/Indicator: TA98, Metabolic Activation: HAMSTER, LIVER, S-9, AROCLOR 1254 (30%), Method: PREINCUBATION) “inactive; negative”; under setting [1], “inactive; negative”; (Test System: AMES SALMONELLA TYPHIMURIUM, Strain/Indicator: TA98, Metabolic Activation: RAT, LIVER, S-9, AROCLOR 1254 (10%), Method: PREINCUBATION) “inactive; negative”; (Test System: AMES SALMONELLA TYPHIMURIUM, Strain/Indicator: TA98, Metabolic Activation: RAT, LIVER, S-9, AROCLOR 1254 (30%), Method: PREINCUBATION) “inactive; negative”; (Test System: AMES SALMONELLA TYPHIMURIUM, Strain/Indicator: TA100, Metabolic Activation: HAMSTER, LIVER, S-9, AROCLOR 1254 (10%), Method: PREINCUBATION) “inactive; negative”; (Test System: AMES SALMONELLA TYPHIMURIUM, Strain/Indicator: TA100, Metabolic Activation: HAMSTER, LIVER, S-9, AROCLOR 1254 (30%), Method: PREINCUBATION) “inactive; negative”. Further, the mutagenic call by setting is: under setting [2], “inactive; negative”; (Test System: AMES SALMONELLA TYPHIMURIUM, Strain/Indicator: TA100, Metabolic Activation: RAT, LIVER, S-9, AROCLOR 1254 (10%), Method: PREINCUBATION) “inactive; negative”; (Test System: AMES SALMONELLA TYPHIMURIUM, Strain/Indicator: TA100, Metabolic Activation: RAT, LIVER, S-9, AROCLOR 1254 (30%), Method: PREINCUBATION) “inactive; negative”; (Test System: AMES SALMONELLA TYPHIMURIUM, Strain/Indicator: TA104, Metabolic Activation: HAMSTER, LIVER, S-9, AROCLOR 1254 (10%), Method: PREINCUBATION) “inactive; negative”; (Test System: AMES SALMONELLA TYPHIMURIUM, Strain/Indicator: TA104, Metabolic Activation: HAMSTER, LIVER, S-9, AROCLOR 1254 (30%), Method: PREINCUBATION) “inactive; negative”; (Test System: AMES SALMONELLA TYPHIMURIUM, Strain/Indicator: TA104, Metabolic Activation: NONE, Method: PREINCUBATION) “inactive; negative”. The mutagenic call was “inactive; negative” (Test System: AMES SALMONELLA TYPHIMURIUM, Strain/Indicator: TA104, Metabolic Activation: RAT, LIVER, S-9, AROCLOR 1254 (10%), Method: PREINCUBATION); “inactive; negative” (Test System: AMES SALMONELLA TYPHIMURIUM, Strain/Indicator: TA104, Metabolic Activation: RAT, LIVER, S-9, AROCLOR 1254 (30%), Method: PREINCUBATION); “inactive; negative” (Test System: AMES SALMONELLA TYPHIMURIUM, Strain/Indicator: TA1535, Metabolic Activation: HAMSTER, LIVER, S-9, AROCLOR 1254 (10%), Method: PREINCUBATION); “inactive; negative” (Test System: AMES SALMONELLA TYPHIMURIUM, Strain/Indicator: TA1535, Metabolic Activation: HAMSTER, LIVER, S-9, AROCLOR 1254 (30%), Method: PREINCUBATION); “inactive; negative” under setting [3]; “inactive; negative” (Test System: AMES SALMONELLA TYPHIMURIUM, Strain/Indicator: TA1535, Metabolic Activation: RAT, LIVER, S-9, AROCLOR 1254 (10%), Method: PREINCUBATION). Further, the mutagenic call (Test System: AMES SALMONELLA TYPHIMURIUM, Strain/Indicator: TA1535, Metabolic Activation: RAT, LIVER, S-9, AROCLOR 1254 (30%), Method: PREINCUBATION) is “inactive; negative”.

For the compound `CC[C@@]1(O)C(=O)OCc2c1cc1n(c2=O)Cc2cc3c(CN(C)C)c(O)ccc3nc2-1`, for the setting “Test System: CHINESE HAMSTER V-79, Strain/Indicator: V-79 (HPRT)/6-THIOGUANINE, Metabolic Activation: NONE”, the mutagenic call was “active; positive”.

Take `CC1=C(C(=O)OC(C)C)C(c2cccc([N+](=O)[O-])c2)C(C(=O)OC2CN(C(c3ccccc3)c3ccccc3)C2)=C(N)N1` (configuration not stated): the mutagenic call is “inactive; negative” under setting [4]; “inactive; negative” (Test System: AMES SALMONELLA TYPHIMURIUM, Strain/Indicator: TA98, Metabolic Activation: RAT LIVER S-9, Method: STANDARD PLATE); “inactive; negative” under setting [5]; “inactive; negative” (Test System: AMES SALMONELLA TYPHIMURIUM, Strain/Indicator: TA100, Metabolic Activation: RAT LIVER S-9, Method: STANDARD PLATE); “inactive; negative” (Test System: AMES SALMONELLA TYPHIMURIUM, Strain/Indicator: TA1535, Metabolic Activation: NONE, Method: STANDARD PLATE); “inactive; negative” (Test System: AMES SALMONELLA TYPHIMURIUM, Strain/Indicator: TA1535, Metabolic Activation: RAT LIVER S-9, Method: STANDARD PLATE). For the same compound, the mutagenic call runs as follows: (Test System: AMES SALMONELLA TYPHIMURIUM, Strain/Indicator: TA1537, Metabolic Activation: NONE, Method: STANDARD PLATE) “inactive; negative”; (Test System: AMES SALMONELLA TYPHIMURIUM, Strain/Indicator: TA1537, Metabolic Activation: RAT LIVER S-9, Method: STANDARD PLATE) “inactive; negative”; (Test System: E.COLI, Strain/Indicator: WP2 UVRA, Metabolic Activation: NONE, Method: STANDARD PLATE) “inactive; negative”; (Test System: E.COLI, Strain/Indicator: WP2 UVRA, Metabolic Activation: RAT LIVER S-9, Method: STANDARD PLATE) “inactive; negative”.

On to `NC(=O)N(c1ccccc1)c1ccc(C(=O)O)cc1`, for which the mutagenic call (Test System: AMES SALMONELLA TYPHIMURIUM, Strain/Indicator: TA98, Metabolic Activation: MAIZE SEEDLING, S-14, Method: PREINCUBATION) was “active; positive”; the mutagenic call (Test System: AMES SALMONELLA TYPHIMURIUM, Strain/Indicator: TA98, Metabolic Activation: MOUSE, LIVER, S-9, Method: PREINCUBATION) is “inactive; negative”; the mutagenic call under setting [1] was “inactive; negative”; the mutagenic call (Test System: AMES SALMONELLA TYPHIMURIUM, Strain/Indicator: TA100, Metabolic Activation: MAIZE SEEDLING, S-14, Method: PREINCUBATION) is “inactive; negative”; the mutagenic call (Test System: AMES SALMONELLA TYPHIMURIUM, Strain/Indicator: TA100, Metabolic Activation: MOUSE, LIVER, S-9, Method: PREINCUBATION) is “inactive; negative”; the mutagenic call under setting [2] was “inactive; negative”. Moreover, the mutagenic call is “inactive; negative” under setting [3]; “inactive; negative” (Test System: AMES SALMONELLA TYPHIMURIUM, Strain/Indicator: TA1537, Metabolic Activation: NONE, Method: PREINCUBATION); “inactive; negative” (Test System: AMES SALMONELLA TYPHIMURIUM, Strain/Indicator: TA1538, Metabolic Activation: NONE, Method: PREINCUBATION).

Take `C[C@@]12CCC=C(C=O)[C@]1(C=O)C2`: the mutagenic call under setting [4] was “active; positive” and the mutagenic call under setting [5] is “active; positive”.
